Measurements as given in US20220062258A1, “Heterocyclic derivatives” (Merck Patent GmbH, priority 2019, published 2022).

Experiments:
[1] = tested on: HUVEC primary endothelial cells; test: HUVEC proliferation assay (CyQUANT Direct); assay type: cell-based; settings: Homo sapiens, 72 h, 3 days incubation
Outline: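 Pooled primary HUVECs (≤4 passages) seeded 6 h before compound, then exposed 3 days at 37 °C, 5% CO2. Cell number read as DNA content by CyQUANT Direct fluorescence (ex 480/em 535 nm). IC50 from 10-point dose response.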

MetAP-2 = MetAP-2 (Homo sapiens, UniProt P50579); test: Biochemical activity testing of MetAP-2 (enzyme-coupled assay, Met-Ala-Ser substrate); design: N-terminal His tag human rec MetAP2 (prepared in house, AA 2-478, final concentration (fc) 123 nM); His tag (N); TEV cleavage site (N); made in house
Experimental: Biochemical Activity Testing of MetAP-2
MetAP-2 activity was determined by an enzyme-coupled assay using the tripeptide Met-Ala-Ser (MAS) as substrate and recombinant human MetAP-2 (His-Tev-MetAP-2, prepared at Merck). The released methionine is converted by L-amino acid oxidase (AAO) to oxidized Methionine and hydrogen peroxide is released. In a second step horse radish peroxidase catalyzes the oxidation of the leuko dye dianisidine to oxidized dianisidine using hydrogen peroxide as co-substrate. The produced dianisidine ox was detected photometrically as increase in absorbance at 450 nm. Met-AP2 activity was determined in a kinetic measurement mode. The release of one molecule methionine corresponds to the production of one molecule dianisidine ox. The MetAP2 enzymatic activity is directly corresponding to the increase in absorbance per time.
In detail, the assay was performed in 384 well microtiter plate (Greiner 78110 MTP, transparent) in a total reaction volume of 50 μl at 22° C. 0.35 μg of N-terminal His tag human rec MetAP2 (prepared in house, AA 2-478, final concentration (fc) 123 nM), 1 unit horse radish Peroxidase (Roche, Mannheim), 0.02 unit L-amino acid oxidase (Merck, Darmstadt), 0.6 mM dianisidine (Merck, Darmstadt, dissolved in 50 mM HCl, 10% DMSO) were incubated in the absence or presence of the test compound (10 dilution concentrations) in 100 mM Hepes, 50 mM NaCl, 50 μM MnCl2 at pH 7.0 for 15 min at 22° C. The reaction was started by the addition of 500 μM (fc) MAS peptide (Merck, Darmstadt). After mixing the first absorbance measurement was performed on an Envision multimode reader (Perkin-Elmer, Waltham) at wavelength of 450 nm. The reaction was incubated at 22° C. for additional 45 min and the second absorbance measurement was performed. The increase of absorbance per time was determined. The control value used was the inhibitor-free reaction with 0.5% DMSO (fc). As pharmacological inhibitor control Fumagillin (Merck, Darmstadt) in a final concentration of 5 μM was used. The inhibitory values (IC50) were determined using the program ASSAY ANALYZER® from GeneData (Basel, Switzerland).

MetAP-2, sequence (P50579 2-478): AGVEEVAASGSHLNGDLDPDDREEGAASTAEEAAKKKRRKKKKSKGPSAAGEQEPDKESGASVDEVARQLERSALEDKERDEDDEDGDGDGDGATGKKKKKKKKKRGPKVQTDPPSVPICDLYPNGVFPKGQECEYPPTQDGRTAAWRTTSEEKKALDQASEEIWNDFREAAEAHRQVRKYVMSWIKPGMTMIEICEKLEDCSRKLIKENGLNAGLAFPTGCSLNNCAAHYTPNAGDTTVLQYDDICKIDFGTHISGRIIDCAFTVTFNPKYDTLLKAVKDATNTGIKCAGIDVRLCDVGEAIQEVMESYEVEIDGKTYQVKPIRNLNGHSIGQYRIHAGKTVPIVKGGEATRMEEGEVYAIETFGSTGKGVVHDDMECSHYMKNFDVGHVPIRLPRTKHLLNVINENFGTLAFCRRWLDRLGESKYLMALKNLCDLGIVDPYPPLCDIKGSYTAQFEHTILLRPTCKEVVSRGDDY

| IC50 (MetAP-2) [µM] | Structure (SMILES) | IC50 [1] [µM] |
| --- | --- | --- |
| 0.19 | O=C1CCC(N2C(=O)c3cccc(NCCOCCOCCOCCOCCOCCNC(=O)c4cc5cc(N6CCC(O)(C(=O)NCc7cc(F)cc(F)c7)C6=O)ccc5[nH]4)c3C2=O)C(=O)N1 (stereo not shown) [Compound A1, 5-[3-[(3,5-difluorophenyl)methylcarbamoyl]-3-hydroxy-2-oxo-pyrrolidin-1-yl]-N-[2-[2-[2-[2-[2-[2-[[2-(2,6-dioxo-3-piperidyl)-1,3-dioxo-isoindolin-4-yl]amino]ethoxy]ethoxy]ethoxy]ethoxy]ethoxy]ethyl]-1H-indole-2-carboxamide] | 25 |
| 0.25 | O=C1CCC(N2C(=O)c3ccc(NCCOCCOCCOCCOCCNC(=O)c4cc5cc(N6CCC(O)(C(=O)NCc7cc(F)cc(F)c7)C6=O)ccc5[nH]4)cc3C2=O)C(=O)N1 (stereo not shown) [Compound A2, 5-[3-[(3,5-difluorophenyl)methylcarbamoyl]-3-hydroxy-2-oxo-pyrrolidin-1-yl]-N-[2-[2-[2-[2-[2-[[2-(2,6-dioxo-3-piperidyl)-1,3-dioxo-isoindolin-5-yl]amino]-ethoxy]ethoxy]ethoxy]ethoxy]ethyl]-1H-indole-2-carboxamide] | 30 |
